Test results published in ChEMBL document CHEMBL1201862, “PubChem BioAssay data set” (2004).
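How tested: cells in 96-well plates exposed to compound for 48 hours at five concentrations. GI50 marks 50% less growth.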 Calls of active or inactive are those of the source. Cut-off read from the data, not from the text of the source: active = GI50 up to about 1.1 µM and inactive = higher.

Experiments:
Experiment in all cases: NCI-60 cell line screen, 48 h
[1] = system: A549
[2] = system: LOX IMVI
[3] = system: BT-549
[4] = system: MDA-N
[5] = system: M14
[6] = system: T47D
[7] = system: A498
[8] = system: UO-31
[9] = system: HCT-15
[10] = system: SK-OV-3
[11] = system: IGROV-1
[12] = system: HL-60
[13] = system: UACC-257
[14] = system: HOP-62
[15] = system: SK-MEL-5
[16] = system: HT-29
[17] = system: KM12
[18] = system: TK-10
[19] = system: Hs-578T
[20] = system: SN12C
[21] = system: MDA-MB-231
[22] = system: NCI-H23
[23] = system: CAKI-1
[24] = system: UACC-62
[25] = system: PC-3
[26] = system: SW-620
[27] = system: CCRF-CEM
[28] = system: ACHN
[29] = system: K562
[30] = system: MOLT-4
[31] = system: MCF7
[32] = system: EKVX
[33] = system: SF-295
[34] = system: Malme-3M
[35] = system: DU-145
[36] = system: MDA-MB-435
[37] = system: SF-268
[38] = system: SK-MEL-28
[39] = system: HCC 2998
[40] = system: NCI-H460
[41] = system: OVCAR-8
[42] = system: SR
[43] = system: SNB-75
[44] = system: RPMI-8226
[45] = system: NCI-H226
[46] = system: NCI-H522
[47] = system: SF-539
[48] = system: 786-0
[49] = system: COLO 205
[50] = system: HCT-116
[51] = system: SNB-19
[52] = system: HOP-92
[53] = system: U-251
[54] = system: OVCAR-3
[55] = system: OVCAR-4
[56] = system: RXF 393
[57] = system: SK-MEL-2

Structure (SMILES): Cc1nn(C(=O)Cc2ccccc2)c2c1C(c1ccccc1)SC(=N)N2 (centres undefined)
- GI50 [1]: > 100 µM (inactive)
- GI50 [2]: > 100 µM (inactive)
- GI50 [3]: > 100 µM (inactive)
- GI50 [4]: > 100 µM (inactive)
- GI50 [5]: > 100 µM (inactive)
- GI50 [6]: > 100 µM (inactive)
- GI50 [7]: > 100 µM (inactive)
- GI50 [8]: > 100 µM (inactive)
- GI50 [9]: > 100 µM
- GI50 [10]: > 100 µM (inactive)
- GI50 [11]: > 100 µM (inactive)
- GI50 [12]: > 100 µM (inactive)
- GI50 [13]: > 100 µM (inactive)
- GI50 [14]: > 100 µM (inactive)
- GI50 [15]: > 100 µM (inactive)
- GI50 [16]: > 100 µM (inactive)
- GI50 [17]: > 100 µM (inactive)
- GI50 [18]: > 100 µM (inactive)
- GI50 [19]: > 100 µM (inactive)
- GI50 [20]: > 100 µM (inactive)
- GI50 [21]: > 100 µM (inactive)
- GI50 [22]: > 100 µM (inactive)
- GI50 [23]: > 100 µM (inactive)
- GI50 [24]: > 100 µM (inactive)
- GI50 [25]: > 100 µM (inactive)
- GI50 [26]: > 100 µM (inactive)
- GI50 [27]: > 100 µM (inactive)
- GI50 [28]: > 100 µM (inactive)
- GI50 [29]: > 100 µM (inactive)
- GI50 [30]: > 100 µM (inactive)
- GI50 [31]: > 100 µM (inactive)
- GI50 [32]: > 100 µM (inactive)
- GI50 [33]: > 100 µM (inactive)
- GI50 [34]: > 100 µM (inactive)
- GI50 [35]: > 100 µM (inactive)
- GI50 [36]: > 100 µM (inactive)
- GI50 [37]: > 100 µM (inactive)
- GI50 [38]: > 100 µM (inactive)
- GI50 [39]: > 100 µM (inactive)
- GI50 [40]: > 100 µM (inactive)
- GI50 [41]: > 100 µM (inactive)
- GI50 [42]: > 100 µM (inactive)
- GI50 [43]: 43.5 µM (inactive)
- GI50 [44]: > 100 µM (inactive)
- GI50 [45]: > 100 µM (inactive)
- GI50 [46]: > 100 µM (inactive)
- GI50 [47]: > 100 µM (inactive)
- GI50 [48]: > 100 µM (inactive)
- GI50 [49]: > 100 µM (inactive)
- GI50 [50]: > 100 µM (inactive)
- GI50 [51]: > 100 µM (inactive)

Structure (SMILES): Cc1cc(C)c2c(c1)C(=O)/C(=C/c1ccccc1C(=O)O)C2
- GI50 [1]: 65.6 µM (inactive)
- GI50 [2]: 71.9 µM (inactive)
- GI50 [3]: 78 µM (inactive)
- GI50 [4]: 67.5 µM (inactive)
- GI50 [5]: 90.4 µM (inactive)
- GI50 [6]: 39 µM (inactive)
- GI50 [7]: 67 µM (inactive)
- GI50 [8]: > 100 µM (inactive)
- GI50 [52]: > 100 µM (inactive)
- GI50 [9]: 54.3 µM
- GI50 [11]: > 100 µM (inactive)
- GI50 [12]: 57.7 µM (inactive)
- GI50 [13]: > 100 µM (inactive)
- GI50 [14]: 67.5 µM (inactive)
- GI50 [15]: 59.8 µM (inactive)
- GI50 [16]: 59 µM (inactive)
- GI50 [17]: 94.6 µM (inactive)
- GI50 [18]: > 100 µM (inactive)
- GI50 [19]: > 100 µM (inactive)
- GI50 [20]: 53.8 µM (inactive)
- GI50 [21]: 50.2 µM (inactive)
- GI50 [23]: > 100 µM (inactive)
- GI50 [24]: 89.5 µM (inactive)
- GI50 [25]: 43.2 µM (inactive)
- GI50 [26]: 84.3 µM (inactive)
- GI50 [27]: 44.2 µM (inactive)
- GI50 [28]: > 100 µM (inactive)
- GI50 [53]: 35.7 µM (inactive)
- GI50 [29]: 52.5 µM (inactive)
- GI50 [30]: 34.4 µM (inactive)
- GI50 [31]: 88.7 µM (inactive)
- GI50 [54]: 22.5 µM (inactive)
- GI50 [32]: 29.1 µM (inactive)
- GI50 [33]: 52.2 µM (inactive)
- GI50 [34]: > 100 µM (inactive)
- GI50 [55]: 45.1 µM (inactive)
- GI50 [35]: > 100 µM (inactive)
- GI50 [37]: 61.7 µM (inactive)
- GI50 [38]: > 100 µM (inactive)
- GI50 [39]: 51.3 µM (inactive)
- GI50 [40]: 58.5 µM (inactive)
- GI50 [56]: 38.7 µM (inactive)
- GI50 [41]: 68.4 µM (inactive)
- GI50 [42]: 62.4 µM (inactive)
- GI50 [43]: 40 µM (inactive)
- GI50 [44]: 55.1 µM (inactive)
- GI50 [45]: 30.9 µM (inactive)
- GI50 [46]: 20.6 µM (inactive)
- GI50 [47]: 25.9 µM (inactive)
- GI50 [48]: > 100 µM (inactive)
- GI50 [50]: 63 µM (inactive)
- GI50 [57]: > 100 µM (inactive)
- GI50 [51]: 50.1 µM (inactive)
